From ChEMBL document CHEMBL1137110, “Synthesis and biological activity of 22-oxa CD-ring modified analogues of 1alpha,25-dihydroxyvitamin D3: spiro[5.5]undecane CF-ring analogues” (2004)

Tests used:
[1] = target: T1, Vitamin D3 receptor (Homo sapiens) (UniProt P11473); assay: Antiproliferative activity in human breast cancer MCF-7 cells relative to 1-alpha,25(OH)2D3; assay type: functional, cell-based; details: MCF7
T1 sequence (whole entry): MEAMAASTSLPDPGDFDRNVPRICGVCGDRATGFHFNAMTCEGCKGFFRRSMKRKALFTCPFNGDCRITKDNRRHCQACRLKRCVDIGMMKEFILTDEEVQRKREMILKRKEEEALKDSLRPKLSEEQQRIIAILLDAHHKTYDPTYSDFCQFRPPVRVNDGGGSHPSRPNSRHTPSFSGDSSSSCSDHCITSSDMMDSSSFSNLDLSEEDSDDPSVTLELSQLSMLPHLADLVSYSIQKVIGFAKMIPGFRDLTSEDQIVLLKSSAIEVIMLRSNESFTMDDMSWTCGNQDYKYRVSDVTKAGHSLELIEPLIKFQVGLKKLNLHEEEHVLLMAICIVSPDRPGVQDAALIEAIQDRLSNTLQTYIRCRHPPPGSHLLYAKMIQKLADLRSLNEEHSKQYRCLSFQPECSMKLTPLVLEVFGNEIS

[2] = target: T2, Vitamin D3 receptor (Sus scrofa) (UniProt A3RGC1); assay: Binding affinity for pig nuclear vitamin D receptor relative to 1-alpha,25(OH)2D3
T2 sequence (whole entry): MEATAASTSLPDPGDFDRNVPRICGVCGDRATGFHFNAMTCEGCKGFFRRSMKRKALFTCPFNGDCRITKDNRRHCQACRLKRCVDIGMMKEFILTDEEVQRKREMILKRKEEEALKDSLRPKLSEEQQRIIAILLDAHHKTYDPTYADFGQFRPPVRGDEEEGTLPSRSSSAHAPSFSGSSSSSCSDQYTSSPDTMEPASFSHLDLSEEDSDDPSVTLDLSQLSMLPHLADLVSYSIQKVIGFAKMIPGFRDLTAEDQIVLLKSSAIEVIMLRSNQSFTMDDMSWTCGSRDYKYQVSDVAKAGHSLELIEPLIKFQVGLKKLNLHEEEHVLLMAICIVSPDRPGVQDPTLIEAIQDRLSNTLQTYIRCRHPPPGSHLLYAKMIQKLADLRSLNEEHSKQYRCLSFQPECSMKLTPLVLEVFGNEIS

[3] = target: T3, Vitamin D3 receptor (Mus musculus) (UniProt P48281); assay: Effect on Ca level in mouse serum relative to 1-alpha,25(OH)2D3 treatment; assay type: functional, in vivo
T3 sequence (whole entry): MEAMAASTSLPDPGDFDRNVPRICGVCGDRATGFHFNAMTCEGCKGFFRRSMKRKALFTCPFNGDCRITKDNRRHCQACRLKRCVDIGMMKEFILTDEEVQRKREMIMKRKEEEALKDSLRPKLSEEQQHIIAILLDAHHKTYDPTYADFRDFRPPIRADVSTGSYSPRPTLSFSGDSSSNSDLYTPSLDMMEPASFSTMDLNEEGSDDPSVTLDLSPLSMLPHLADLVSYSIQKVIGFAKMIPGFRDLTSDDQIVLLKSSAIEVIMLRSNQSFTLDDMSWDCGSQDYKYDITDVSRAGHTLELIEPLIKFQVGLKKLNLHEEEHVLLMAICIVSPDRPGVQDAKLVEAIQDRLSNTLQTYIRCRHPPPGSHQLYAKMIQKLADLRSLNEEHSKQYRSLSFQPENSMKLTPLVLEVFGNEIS

HL-60 = assay: Prodifferentiating activity of compound on human leukemia HL-60 cells was determined; assay type: functional
MCF7 = assay: Antiproliferative activity on human breast cancer MCF-7 cells was determined; assay type: functional
[4] = target: T2, Vitamin D3 receptor (Sus scrofa); assay: Binding affinity for pig nuclear vitamin D receptor
Mus musculus = organism: Mus musculus; assay: Effect of compound on Ca level in mice blood serum was determined; assay type: functional
[5] = target: T1, Vitamin D3 receptor (Homo sapiens); assay: Differentiation activity in human leukemia HL-60 cells relative to 1-alpha,25(OH)2D3; assay type: functional, cell-based

Compound | Activity [1] | Activity [2] | Activity [3] | Activity [4] | Activity [5] | Activity (HL-60) | Activity (MCF7) | Activity (Mus musculus)
C=C1/C(=C\C=C2/CCC[C@]3(CC[C@@H](OCCC(C)(C)O)CC3)C2)C[C@@H](O)C[C@@H]1O | 10 | 0.5 | < 0.25 | – | – | – | – | –
CC(C)(O)CCO[C@H]1CC[C@]2(CCC/C(=C\C=C3C[C@@H](O)C[C@H](O)C3)C2)CC1 | 7 | < 0.1 | < 0.25 | – | 6 | – | – | –
CC(C)(O)CCO[C@H]1CC[C@@]2(CCC/C(=C\C=C3C[C@@H](O)C[C@H](O)C3)C2)CC1 | 60 | < 0.1 | < 0.25 | – | 8 | – | – | –

More lines, main results first:

Activity [1] | Activity [2] | Activity [3] | Activity [4] | Activity [5] | Compound | Activity (HL-60) | Activity (MCF7) | Activity (Mus musculus)
– | – | – | 100 | – | C=C1/C(=C\C=C2/CCC[C@]3(C)[C@@H]([C@H](C)CCCC(C)(C)O)CC[C@@H]23)C[C@@H](O)C[C@@H]1O [CALCITRIOL] | 100 | 100 | 100
0 | < 0.1 | < 0.25 | – | < 1 | C=C1/C(=C/C=C2/CCC[C@]3(CC[C@H](OCCC(C)(C)O)CC3)C2)C[C@@H](O)C[C@@H]1O | – | – | –
